{"source": "patent US20040219200A1", "about": "“Topical patch preparation containing a delayed-type hypersensitivity inducer and methods for using the same” (priority 2001, published 2004)", "origin": "cited, not measured here", "settings": "research conducted in the 1950s in the US", "data": [{"smiles": "O=[N+]([O-])c1ccc(Cl)c([N+](=O)[O-])c1", "note": "[DNCB, 1-chloro-2,4-dinitrobenzene]", "values": [{"measurement": "Carcinogenicity", "result": "not carcinogenic"}]}]}
